Measurements published in publication PMC9969401, “Discovery of 2-(3-Benzamidopropanamido)thiazole-5-carboxylate Inhibitors of the Kinesin HSET (KIFC1) and the Development of Cellular Target Engagement Probes” (Journal of Medicinal Chemistry, 2023).

Molecular target: T1, full-length HSET (FL HSET) (Homo sapiens, UniProt Q9BW19)
T1 construct: 5 nM full-length human N-terminal His-tag HSET; His-tag (N)
T1 sequence (Q9BW19 1-673): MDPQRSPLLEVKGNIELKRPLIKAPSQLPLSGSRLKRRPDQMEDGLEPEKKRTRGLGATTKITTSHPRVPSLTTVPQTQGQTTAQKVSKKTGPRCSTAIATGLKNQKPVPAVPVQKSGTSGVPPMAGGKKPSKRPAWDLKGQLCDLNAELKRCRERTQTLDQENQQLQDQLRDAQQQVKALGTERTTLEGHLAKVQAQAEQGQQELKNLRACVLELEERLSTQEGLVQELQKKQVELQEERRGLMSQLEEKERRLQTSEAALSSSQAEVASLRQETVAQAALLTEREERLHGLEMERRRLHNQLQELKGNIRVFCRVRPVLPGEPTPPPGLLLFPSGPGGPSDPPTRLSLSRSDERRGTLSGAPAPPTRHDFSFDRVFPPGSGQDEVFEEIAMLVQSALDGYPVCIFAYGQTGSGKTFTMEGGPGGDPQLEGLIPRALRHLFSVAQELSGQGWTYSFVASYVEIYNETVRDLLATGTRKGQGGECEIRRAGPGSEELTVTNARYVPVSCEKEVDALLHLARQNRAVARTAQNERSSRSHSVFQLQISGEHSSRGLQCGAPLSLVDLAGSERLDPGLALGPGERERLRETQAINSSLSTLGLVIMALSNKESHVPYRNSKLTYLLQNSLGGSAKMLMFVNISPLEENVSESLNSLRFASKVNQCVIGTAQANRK
Assay: Competitive binding fluorescence polarization assay (displacement of probe 37)
Conditions: 400 nM FL HSET, 2.5 nM probe 37; read-out: IC50, displacement of FP probe 37 from FL HSET
Protocol: Steady-state fluorescence polarization binding assays were performed using the fluorescence-tagged probe 37. All assays were performed in a black ProxiPlate-384 Plus plate (PerkinElmer, 6008260) in a 10 μL volume in buffer containing 20 mM HEPES pH 7.5, 200 mM NaCl, 1 mM TCEP, 10 mM MgCl2, 0.1 mM Triton X-100, and 5% glycerol (v/v). Full-length human N-terminal His-tag HSET was used, with a final concentration of 2.5 nM 37 probe. The assays were sealed and incubated in the dark at 25 °C and then the FP signal was read on an EnVision multimode plate reader (PerkinElmer Life Sciences) using excitation at 620 nm and parallel and perpendicular emissions at 688 nm. All data processing was done using Prism (GraphPad Software).
For the competition assays, 100 nL of compound dissolved in DMSO or DMSO alone was added to create 11 pt concentration response curves between 100 and 0.001 μM final concentrations. This assay used 400 nM FL HSET, and the plate was read after 2 h of incubation in the dark at 25 °C. IC50 values were determined as for the ATPase assay using a four-parameter statistical logistic curve fit.

Row | IC50 | Structure (SMILES)
1 | 436 ± 56 nM | Nc1ncnc2c1ncn2[C@@H]1O[C@H](COP(=O)(O)OP(=O)(O)OP(=O)(O)O)[C@@H](O)[C@H]1O [ATP, adenosine 5′-triphosphate]
2 | 400 ± 66 nM | Nc1ncnc2c1ncn2[C@@H]1O[C@H](COP(=O)(O)OP(=O)(O)O)[C@@H](O)[C@H]1O [ADP, adenosine diphosphate]
